Data on 34 molecules can be found in patent US8293768B2, “Organic compounds” (Novartis AG, priority 2006, dated 2012).

As to `Cc1nc(N2CCN(Cc3ccc(C(F)(F)F)cc3)C2=O)sc1C(=O)O` [Example 6.5, 4-methyl-2-(2-oxo-3-(4-(trifluoromethyl)benzyl)imidazolidin-1-yl)thiazole-5-carboxylic acid], the melting point lay within 195 to 197 °C. Then `Cc1cnc(CNC(=O)c2sc(-n3cnn(Cc4ccc(F)cc4)c3=O)cc2C)cn1` [Example 31.5, 5-(1-(4-fluorobenzyl)-5-oxo-1H-1,2,4-triazol-4(5H)-yl)-3-methyl-N-((5-methylpyrazin-2-yl)methyl)thiophene-2-carboxamide], with 189 to 191 °C; and `Cc1cc(-n2cnn(Cc3ccc(S(C)(=O)=O)cc3)c2=O)sc1C(=O)NCc1cccnc1` [Example 31.4, 3-methyl-5-(1-(4-(methylsulfonyl)benzyl)-5-oxo-1H-1,2,4-triazol-4(5H)-yl)-N-(pyridin-3-ylmethyl)thiophene-2-carboxamide], with 208 to 210 °C; and `Cc1nc(N2CCN(Cc3ccc(OC(F)(F)F)cc3)C2=O)sc1C(=O)NC[C@H](O)c1ccccc1` [Example 9.29, (R)—N-(2-hydroxy-2-phenylethyl)-4-methyl-2-(2-oxo-3-(4-(trifluoromethoxy)benzyl)imidazolidin-1-yl)thiazole-5-carboxamide], with 149 to 151 °C.

For the molecule `Cc1cc(-c2sc(N3CCN(Cc4ccc(C(F)(F)F)cc4)C3=O)nc2C)on1` [Example 38.3, 1-(4-methyl-5-(3-methylisoxazol-5-yl)thiazol-2-yl)-3-(4-(trifluoromethyl)benzyl)imidazolidin-2-one], the melting point fell in the range of 201 to 203 °C. Then `Cc1nc(N2CCN(Cc3ccc(F)cc3)C2=O)sc1C(=O)NCc1ncccn1` [Example 32.16, 2-(3-(4-fluorobenzyl)-2-oxoimidazolidin-1-yl)-4-methyl-N-(pyrimidin-2-ylmethyl)thiazole-5-carboxamide], with 205 to 207 °C; and `Cc1nc(N2C(=O)CN(c3ccc(F)cc3)C2=O)sc1C(=O)NCc1ccccc1` [Example 2, N-benzyl-2-(3-(4-fluorophenyl)-2,5-dioxoimidazolidin-1-yl)-4-methylthiazole-5-carboxamide], with 217 to 219 °C; and `COC(=O)c1cnc(N2CCNC2=O)s1` [Example 3.1, methyl 2-(2-oxoimidazolidin-1-yl)thiazole-5-carboxylate], with 205 to 208 °C. In the case of `Cc1nc(-n2cnn(CCOC(=O)NCc3ccc(F)cc3)c2=O)sc1C(=O)NCc1cccnc1` [Example 48, 2-(4-(4-methyl-5-(pyridin-3-ylmethylcarbamoyl)thiazol-2-yl)-5-oxo-4,5-dihydro-1H-1,2,4-triazol-1-yl)ethyl 4-fluorobenzylcarbamate] it was 149 to 150 °C; in that of `Cc1cc(N2CCN(CC(O)c3ccccc3)C2=O)sc1C(=O)NCc1cccnc1` (stereo not shown) [Example 57, 5-(3-(2-hydroxy-2-phenylethyl)-2-oxoimidazolidin-1-yl)-3-methyl-N-(pyridin-3-ylmethyl)thiophene-2-carboxamide], 75 °C (dec.). In the case of `Cc1nc(N2CCN(Cc3ccncc3)C2=O)sc1C(=O)NCc1cccnc1` [Example 33, 4-methyl-2-(2-oxo-3-(pyridin-4-ylmethyl)imidazolidin-1-yl)-N-(pyridin-3-ylmethyl)thiazole-5-carboxamide] it was 233 to 235 °C; in that of `Cc1nc(N2CCN(Cc3ccc(OC(F)(F)F)cc3)C2=O)sc1C(=O)NCCc1cccnc1` [Example 9.32, 4-methyl-2-(2-oxo-3-(4-(trifluoromethoxy)benzyl)imidazolidin-1-yl)-N-(2-(pyridin-3-yl)ethyl)thiazole-5-carboxamide], 172 to 173 °C. In turn, `Cc1nc(N2CCN(Cc3ccc(F)cc3)C2=O)sc1C(=O)NCCN1CCCC1` [Example 8.4, 2-(3-(4-fluorobenzyl)-2-oxoimidazolidin-1-yl)-4-methyl-N-(2-(pyrrolidin-1-yl)ethyl)thiazole-5-carboxamide] returned a melting point of 183 to 184 °C.

As to `Cc1nc(N2CCN(Cc3cccc(C(=O)O)c3)C2=O)sc1C(=O)NCc1ccccc1` [Example 25.3, 3-((3-(5-(benzylcarbamoyl)-4-methylthiazol-2-yl)-2-oxoimidazolidin-1-yl)methyl)benzoic acid], the melting point is 143 to 145 °C. In the case of `Cc1nc(-n2cn[nH]c2=O)sc1C(=O)NCc1cccnc1` [Example 21.7, 4-methyl-2-(5-oxo-1H-1,2,4-triazol-4(5H)-yl)-N-(pyridin-3-ylmethyl)thiazole-5-carboxamide] it was 278 to 279 °C. Regarding `CCOC(=O)c1sc(N2CCN(Cc3ccc(C(F)(F)F)cc3)C2=O)nc1C` [Example 5.2, ethyl 4-methyl-2-(2-oxo-3-(4-(trifluoromethyl)benzyl)imidazolidin-1-yl)thiazole-5-carboxylate], the melting point lay in the range of 126 to 127 °C.

Turning to `Cc1cc(-n2cnn(Cc3ccccc3)c2=O)sc1C(=O)NCc1cccnc1` [Example 31.1, 5-(1-benzyl-5-oxo-1H-1,2,4-triazol-4(5H)-yl)-3-methyl-N-(pyridin-3-ylmethyl)thiophene-2-carboxamide], the melting point fell in the range of 180 to 181 °C.

`CC(=O)c1sc(N2CCN(Cc3ccc(C(F)(F)F)cc3)C2=O)nc1C` [Example 5.10, 1-(5-acetyl-4-methylthiazol-2-yl)-3-(4-(trifluoromethyl)benzyl)imidazolidin-2-one]: the melting point is 141 to 142 °C. In the case of `Cc1nc(N2CCN(Cc3ccc(C(F)(F)F)cc3)C2=O)sc1-c1cnco1` [Example 43, 1-(4-methyl-5-(oxazol-5-yl)thiazol-2-yl)-3-(4-(trifluoromethyl)benzyl)-imidazolidin-2-one] it was 160 to 162 °C; in that of `Cc1cc(N2CCN(CC3CC3)C2=O)sc1C(=O)NCc1cccnc1` [Example 15.3, 5-(3-(cyclopropylmethyl)-2-oxoimidazolidin-1-yl)-3-methyl-N-(pyridin-3-ylmethyl)thiophene-2-carboxamide], 157 to 159 °C.

In turn, `Cc1nc(-n2cnn(CCNc3ccc(F)cc3)c2=O)sc1C(=O)NCc1cccnc1` [Example 47.1, 2-(1-(2-(4-fluorophenylamino)ethyl)-5-oxo-1H-1,2,4-triazol-4(5H)-yl)-4-methyl-N-(pyridin-3-ylmethyl)thiazole-5-carboxamide] had a melting point of 163 to 164 °C. In the case of `Cc1nc(N2CCN(CCCc3ccccc3)C2=O)sc1C(=O)NCc1cccnc1` [Example 9.27, 4-methyl-2-(2-oxo-3-(3-phenylpropyl)imidazolidin-1-yl)-N-(pyridin-3-ylmethyl)thiazole-5-carboxamide] it was 127 to 128 °C; in that of `Cc1nc(-n2cnn(Cc3c(C)noc3C)c2=O)sc1C(=O)NCc1cccnc1` [Example 19.7, 2-(1-((3,5-dimethylisoxazol-4-yl)methyl)-5-oxo-1H-1,2,4-triazol-4(5H)-yl)-4-methyl-N-(pyridin-3-ylmethyl)thiazole-5-carboxamide], 233 to 234 °C; in that of `Cc1cc(N2CCN(Cc3ccc(C(N)=O)cc3)C2=O)sc1C(=O)NCc1cccnc1` [Example 55.2, 5-(3-(4-carbamoylbenzyl)-2-oxoimidazolidin-1-yl)-3-methyl-N-(pyridin-3-ylmethyl)thiophene-2-carboxamide], 188 °C (dec.). Then `Cc1nc(N2C[C@@H](Cc3ccccc3)NC2=O)sc1C(=O)NCc1ccccc1` [Example 9.25, (R)—N-benzyl-2-(4-benzyl-2-oxoimidazolidin-1-yl)-4-methylthiazole-5-carboxamide], with 212 to 214 °C. In the case of `Cc1csc(N2CCN(Cc3ccc(C(=O)n4nccc4C)cc3)C2=O)n1` [Example 8.8, 1-(4-(5-methyl-1H-pyrazole-1-carbonyl)benzyl)-3-(4-methylthiazol-2-yl)imidazolidin-2-one] it was 96 to 97 °C; in that of `Cc1nc(-n2cnn(Cc3ccc(F)cc3)c2=O)sc1C(=O)NCc1cc[nH]n1` [Example 21.9, N-((1H-pyrazol-3-yl)methyl)-2-(1-(4-fluorobenzyl)-5-oxo-1H-1,2,4-triazol-4(5H)-yl)-4-methylthiazole-5-carboxamide], 178 to 179 °C. `Cc1nc(N2CCN(Cc3ccccc3)C2=O)sc1C(=O)NCc1cc(F)ccc1F` [Example 9.2, 2-(3-benzyl-2-oxoimidazolidin-1-yl)-N-(2,5-difluorobenzyl)-4-methylthiazole-5-carboxamide] had a melting point of 176 to 177 °C.

`Cc1nc(-n2cnn(CCOc3ccc(F)cc3)c2=O)sc1C(=O)NCc1cccnc1` [Example 21.2, 2-(1-(2-(4-fluorophenoxy)ethyl)-5-oxo-1H-1,2,4-triazol-4(5H)-yl)-4-methyl-N-(pyridin-3-ylmethyl)thiazole-5-carboxamide] gave a melting point of 154 to 155 °C. In the case of `Cc1nc(N2CCN(Cc3ccc(C(F)(F)F)cc3)C2=O)sc1CO` [Example 41, 1-(5-(hydroxymethyl)-4-methylthiazol-2-yl)-3-(4-(trifluoromethyl)benzyl)imidazolidin-2-one] it was 153 to 154 °C.

For the molecule `Cc1nc(N2CCN(Cc3ccccc3)C2=O)sc1C(=O)NCc1cccc(F)c1` [Example 8.1, 2-(3-benzyl-2-oxoimidazolidin-1-yl)-N-(3-fluorobenzyl)-4-methylthiazole-5-carboxamide], the melting point lay within 169 to 171 °C.

As for `Cc1nc(N2CCN(c3ccccc3)C2=O)sc1C(=O)O` [Example 6, 4-methyl-2-(2-oxo-3-phenylimidazolidin-1-yl)thiazole-5-carboxylic acid], the melting point lay in the range of 286 to 289 °C. Then `Cc1nc(-n2cnn(Cc3ccc(C(F)(F)F)o3)c2=O)sc1C(=O)NCc1cccnc1` [Example 21.6, 4-methyl-2-(5-oxo-1-((5-(trifluoromethyl)furan-2-yl)methyl)-1H-1,2,4-triazol-4(5H)-yl)-N-(pyridin-3-ylmethyl)thiazole-5-carboxamide], with 124 to 125 °C; and `O=C(NCc1cccnc1)c1cnc(N2CCN(CC3CC3)C2=O)s1` [Example 26, 2-(3-(cyclopropylmethyl)-2-oxoimidazolidin-1-yl)-N-(pyridin-3-ylmethyl)thiazole-5-carboxamide], with 190 to 192 °C.
